From PubChem BioAssay (NCI) come the findings set out here.

Test in all cases: NCI tumour cell line growth inhibition, 48 h
In test [1] the test system is MDA-N.
For test [2], the system named is DMS 114 small cell lung.
In test [3] the test system is DMS 273 small cell lung.
The subject of test [4] is KM20L2 colon.
For test [5], the system named is M19-MEL melanoma.
Test [6] deals with SNB-78 CNS.
Test [7] concerns XF 498 CNS.
The subject of test [8] is LXFL 529 NSCLC.
In test [9] the test system is RXF-631 renal.
For test [10], the system named is P388 leukemia.
Test [11] has as its system P388/ADR leukemia.
For test [12], the system named is SN12K1 renal.

Each structure is given as a SMILES string. Several values for one entry are separate records, joined by “and”; a condition that tells them apart may be missing. Equal entries are not always repeated.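 Where inhibition never reached the appropriate level, the endpoint shown equals the highest concentration tested. Otherwise, values were interpolated linearly from a five-concentration, 48-hour dose response in 96-well plates. Here, GI50 denotes the concentration required for 50% inhibition of growth. TGI marks complete inhibition of growth.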

`O=c1ccnc(SCc2ccc(Cl)cc2)[nH]1` had a TGI in [1] above 100 µM.
Take `COc1ccc(C2C3=C(COC3=O)Oc3cc4c(cc32)OCO4)cc1` (configuration not stated): the TGI in test [2] is 38.2 µM; in [3], above 100 µM; in test [4], 38.9 µM; in test [5], above 100 µM; in test [6], above 100 µM; in test [7], above 100 µM.
Take `O=C(C=Nc1ccccc1C(=O)[O-])c1cccs1.O=C(C=Nc1ccccc1C(=O)[O-])c1cccs1.[Zn+2]`: the TGI in test [3] and in test [4] was above 100 µM throughout.
`N#CSc1ccc(S(N)(=O)=O)cc1` yielded a TGI in [1] above 100 µM.
For `CC[CH2][Sn]([CH2]CC)([O]C(=O)Cc1ccc(F)cc1)[O][Sn]([CH2]CC)([CH2]CC)[O]C(=O)Cc1ccc(F)cc1`, the GI50 in [2] was 0.029 µM; in test [3], 0.205 µM; in test [4], 0.662 µM; in test [8], 0.0129 µM; in test [5], 0.0593 µM; in [1], 0.317 µM. Also, the GI50 in [7] is 0.161 µM. Also, the TGI in test [2] stood at 0.119 µM; in test [3], 1.13 µM; in [4] it was 1.98 µM; in [8], 0.099 µM; in test [5] it was 0.276 µM; in [1], 1.43 µM. In test [7], this compound came in with a TGI of 0.302 µM.
As to `CCCN1C(=O)CNC(=O)c2[nH]cnc21`, the TGI in [2], in test [4], in test [8], in [5], in [6] and in test [7] was above 100 µM in each case.
With `O=C(Cc1ccccc1)NS(=O)(=O)c1ccccc1`, the TGI in test [2], in test [3], in test [4], in test [8], in test [9] and in test [6] was above 100 µM in each case. Further, the TGI in [7] is above 100 µM.
Consider `CCOC(=O)C(C(=O)OCC)=c1sc(=C(C(=O)OCC)C(=O)OCC)s1`, for which the TGI in test [3], in [4], in test [8], in [5] and in test [6] was above 100 µM in each case.
As to `Nc1nc(-c2cccs2)cs1`, the TGI in test [1] is above 100 µM.
Regarding `C[CH2][Sn]([CH2]C)([O]C(=O)c1ccc(F)cc1)[O][Sn]([CH2]C)([CH2]C)[O]C(=O)c1ccc(F)cc1`, the GI50 in [3] was above 100 µM; in test [4], above 100 µM; in test [8], 13 µM; in test [5], 45.9 µM; in test [6], 21.1 µM; in test [7] it was 16.4 µM. Further, the TGI is above 100 µM in [3]; above 100 µM in [4]; 25.8 µM in test [8]; above 100 µM in test [5]; 50.4 µM in [6]; 31 µM in [7].
In the case of `O=NN(CCCl)C(=O)N[C@H]1CCCC[C@@H]1Cl`, the TGI in test [2], in [3], in test [4], in test [8], in test [5] and in test [7] was above 100 µM in each case.
Turning to `COC(C)(C)[C@H](O)C(O)CC(C)[C@@H]1CCC23CC12CCC1[C@@]2(C)CCC(OC(C)=O)C(C)(C)C2CC(OC2OC(COC(C)=O)C(O)C(O)C2O)[C@]13C` (some centres not stated), the GI50 in [2] was 3.62 µM; in test [3], 7.7 µM; in test [4], 2.63 µM; in [8], 6.23 µM; in test [5], 4.04 µM; in test [6] it was 14 µM. The TGI in test [2] was 8.65 µM and 12.8 µM; in test [3] it was 10.2 µM and 23.4 µM; in test [4] it was 2.12 µM and 7.94 µM; in [8] it was 12.8 µM and 19.2 µM; in test [5], 10.2 µM and 13.8 µM; in test [9], 12.8 µM. Besides, the TGI in test [6] is 17.9 µM and 31.7 µM.
As for `C=C(CN(C)C)C(=O)c1ccc(Oc2ccccc2)cc1`, the TGI was found to be 46.8 µM in test [3]; 27.5 µM in test [4]; 5.04 µM in test [8]; 14.8 µM in [5]; 9.38 µM in test [1]; 35.9 µM in test [9]. Moreover, the results for the TGI in test [6] and in test [7] were 41.9 µM and 27.9 µM, respectively.
Regarding `Cn1nc2ccccc2cc1=O`, the TGI in [2], in test [3], in [4], in test [5], in test [9] and in [6] was above 100 µM throughout. This compound returned a TGI in test [7] above 100 µM.
Consider `CCCCCCCCCCCCC(CCCCCCCCCCCC)OP(=O)(O)O`, for which the TGI in test [2], in test [3], in [4], in test [8], in test [5] and in [9] was above 100 µM throughout. For the same compound, the TGI in test [6] and in [7] was above 100 µM throughout.
For `Cc1ccc(NC(=O)CC2C(=O)Nc3ccccc3S2=O)c(C)c1` (configuration not stated), the TGI in [2] is 34.4 µM; in test [3], above 54.1 µM; in [4] it was above 49.1 µM; in test [8], 61.6 µM; in [5], above 69.1 µM; in [9], above 71.3 µM. Moreover, the TGI in [6] turned out to be 47.6 µM; in [7] it was 28.7 µM.
`Cc1cc(N(CCOS(C)(=O)=O)CCOS(C)(=O)=O)ccc1C=Nc1ccc(-c2csc(-c3ccc(Br)cc3)n2)cc1` had a TGI in test [1] of 56.6 µM.
As to `CC1=CC(=O)c2ccc(C)cc2C1=O`, in test [1], the TGI amounted to 1.17 µM.
`Cn1sc2ccccc2c1=S`: the TGI is 7.46 µM in test [2]; 17.6 µM in test [3]; 28.8 µM in test [4]; 27.1 µM in test [8]; 16.2 µM in [5]; 1.67 µM in test [10]. For the same compound, the TGI in test [11] amounted to 2.86 µM; in [12], 7.41 µM; in test [6], 31 µM; in test [7], 25.1 µM.
